PMC10787763, “Two-substrate enzyme engineering using small libraries that combine the substrate preferences from two different variant lineages” (Scientific Reports, 2024)

Target: T1, E. coli transketolase (TK), 6M variant scaffold (Escherichia coli, UniProt P27302, H100L/H192P/A282P/I365L/D469T/G506A/R520Q, form not given)
T1 construct: gene tktA; full-length, C-terminal His6 tag, expressed in E. coli from lab plasmid (pQR791 / pQR729), Ni-NTA purified; holo-TK with ThDP and Mg2+; non-natural residue by amber suppression in TK-5C
Test: initial-rate kinetics by RP-HPLC, Michaelis-Menten fit
Type: biochemical
Details: TK-5C; residue 385 is non-natural p-cyano-L-phenylalanine; acceptor substrate varied, 50 mM pyruvate as donor, 2.4 mM ThDP, 9 mM MgCl2, 50 mM Tris-HCl pH 7.0, 21 °C; error is SEM
Source text: initial-rate kinetics by RP-HPLC, Michaelis-Menten fit on E. coli transketolase (TK), 6M variant scaffold

T1 sequence (P27302 whole entry H100L/H192P/A282P/I365L/D469T/G506A/R520Q, form open): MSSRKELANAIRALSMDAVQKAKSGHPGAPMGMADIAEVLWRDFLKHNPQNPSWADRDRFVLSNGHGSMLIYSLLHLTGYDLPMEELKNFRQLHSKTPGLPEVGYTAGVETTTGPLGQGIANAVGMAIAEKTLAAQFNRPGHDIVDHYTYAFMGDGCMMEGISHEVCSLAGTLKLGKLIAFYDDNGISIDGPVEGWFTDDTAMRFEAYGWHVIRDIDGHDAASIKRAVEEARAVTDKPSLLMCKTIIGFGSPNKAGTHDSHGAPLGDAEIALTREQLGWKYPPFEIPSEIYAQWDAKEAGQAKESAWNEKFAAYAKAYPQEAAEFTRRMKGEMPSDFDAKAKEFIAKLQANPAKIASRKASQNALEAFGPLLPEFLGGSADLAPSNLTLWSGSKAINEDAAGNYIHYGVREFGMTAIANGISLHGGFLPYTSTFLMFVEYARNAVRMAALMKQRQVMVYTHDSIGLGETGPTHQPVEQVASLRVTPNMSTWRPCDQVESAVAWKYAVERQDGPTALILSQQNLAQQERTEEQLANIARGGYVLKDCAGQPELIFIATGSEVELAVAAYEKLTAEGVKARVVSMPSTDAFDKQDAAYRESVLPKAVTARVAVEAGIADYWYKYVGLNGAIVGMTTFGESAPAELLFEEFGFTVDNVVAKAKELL

O=Cc1cccc(C(=O)O)c1 [3-FBA, 3-formylbenzoic acid]
Km: 95 mM
